The results in this text go back to US12668589B2, “N-formamidopyrazoline derivative as P2X3 receptor antagonist and use thereof” (HANGZHOU WESTAN PHARMACEUTICAL TECHNOLOGY CO., LTD, priority 2020, dated 2026).

For assay [1], the target named is T1, human PAR-1 (Homo sapiens, UniProt P25116).
T1 construct: host or cells: HEK293/Ga15 recombinant cell line
T1 sequence (P25116 22-425): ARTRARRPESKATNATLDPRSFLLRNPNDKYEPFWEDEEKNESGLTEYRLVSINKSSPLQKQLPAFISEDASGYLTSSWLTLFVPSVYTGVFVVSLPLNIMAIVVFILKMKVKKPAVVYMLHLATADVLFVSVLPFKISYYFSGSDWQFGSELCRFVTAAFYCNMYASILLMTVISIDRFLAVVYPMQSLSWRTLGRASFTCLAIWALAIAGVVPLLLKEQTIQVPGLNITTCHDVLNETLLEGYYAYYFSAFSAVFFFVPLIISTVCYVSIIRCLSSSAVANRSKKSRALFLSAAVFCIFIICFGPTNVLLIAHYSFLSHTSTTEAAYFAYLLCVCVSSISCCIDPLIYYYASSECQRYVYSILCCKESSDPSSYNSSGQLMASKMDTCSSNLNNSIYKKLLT
Briefly: Inhibitory activity against PAR-1, calcium ion flux fluorescence method (FLIPR). It is filed as cell-based. The conditions noted are these: HEK293/Ga15 cells expressing human PAR-1, TFLLR-NH2 10 μM, starting concentration 30 μM. As to the method:
The inhibitory activity of the title compounds against human PAR-1 was determined by a calcium ion flux fluorescence method (an FLIPR method). The method thereof was reported in the literature of Zhong et al. [Zhong et al. J Biomol Struct Dyn, 2017, 35(13):2853].
An HEK293/Ga15 recombinant cell line (HD Biosciences, Shanghai, China) stably expressing human PAR-1 was cultured in a DMEM (Thermo Fisher Scientific, Shanghai) culture solution (containing 10% calf serum, 800 μg/mL G418). Incubator conditions were 37° C. and an air humidity with 5% CO2.
On the first day, 20 μL per well of PAR-1 cells at a concentration of 4E+5 cells/mL were seeded in a 384-well analysis plate (Corning 3712). […] On the second day, a culture solution in each well was poured off. Then, 20 μL of 1×loading dye (2 μM Fluo-8 AM in 1×HBSS with 20 mM HEPES, 1 mM Probenecid, 0.025% Pluronic F-127 assay buffer) was added in each well. The cell analysis plate was cultured for 1 hour at a room temperature.
The compounds were dissolved into 100% DMSO to prepare a 10 mM stock solution, which was stored at −20° C. On the day of use, the compound stock solution was thawed at a room temperature. Each compound was subjected to 1:3 serial dilution at 11 concentration points with a DMEM culture solution with a starting concentration of 30 μM. Each compound was subjected to double dilution for testing. A positive control compound was diluted in the same way with SCH79797 with a starting concentration of 30 μM.
The cell analysis plate was placed in a FLIPR instrument (Molecular Device) and 10 μL of compounds (3× of a final concentration) in a compound plate was added to corresponding wells of the cell analysis plate. After 10 minutes, 10 μL of TFLLR-NH2 (TFA) (a final concentration of 10 μM) was added to each well to stimulate generation of intracellular calcium flux signals. Ca^++-dependent fluorescence signals were continuously monitored at excitation wavelengths of 470/495 nm and emission wavelengths of 515/575 nm to analyze the inhibitory activity of the compounds.
Data were collected and analyzed by using an FLIPR program. The inhibitory (or agonistic) activity of the compounds at each concentration was assessed by fluorescence peaks. IC50 values of the compounds were calculated by using EXCEL and PRISM programs.

The target in assay [2] is T2, human P2X3 (Homo sapiens, UniProt P56373).
T2 sequence (P56373 1-397): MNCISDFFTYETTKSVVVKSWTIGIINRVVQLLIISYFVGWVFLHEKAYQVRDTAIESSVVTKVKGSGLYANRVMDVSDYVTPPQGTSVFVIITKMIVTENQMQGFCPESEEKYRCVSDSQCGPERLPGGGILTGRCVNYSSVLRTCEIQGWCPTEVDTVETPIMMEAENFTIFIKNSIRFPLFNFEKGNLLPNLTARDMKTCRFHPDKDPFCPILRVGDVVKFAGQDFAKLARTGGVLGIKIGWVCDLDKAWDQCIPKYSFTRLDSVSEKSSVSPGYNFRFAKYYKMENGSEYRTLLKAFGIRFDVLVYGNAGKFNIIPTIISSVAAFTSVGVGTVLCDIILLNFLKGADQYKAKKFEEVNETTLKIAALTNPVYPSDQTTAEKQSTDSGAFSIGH
Briefly: cell-based.

As for `Cc1ccc(C2=NN(C(=O)N[C@H](C)c3cnc(C(F)(F)F)nc3)C[C@@H]2N2CCN(C)C2=O)cc1` [Compound 41], the half-inhibitory concentration (IC50) in assay [1] is over 30000 nM.
As for `Cc1ccc(C2=NN(C(=O)N[C@H](C)c3nc(C)no3)C[C@@H]2N2CCCC2=O)cc1` [Compound 45], the half-inhibitory concentration (IC50) in assay [1] was over 30000 nM.
In the case of `Cc1ccc(C2=NN(C(=O)N[C@H](C)c3ccc(C(F)(F)F)cc3)C[C@@H]2N2CCOCC2=O)cc1` [Compound 20], in assay [1], the IC50 was over 30000 nM.
For the compound `Cc1ccc(C2=NN(C(=O)N[C@H](C)c3ccc(C(F)(F)F)nn3)C[C@@H]2N2CCOCC2=O)cc1` [Compound 30, (S)-4-(3-oxomorpholin-4-yl)-3-(4-methylphenyl)-N-((R)-1-(6-(trifluoromethyl)pyridazin-3-yl)ethyl)-4,5-dihydro-1H-pyrazol-1-carboxamide], in assay [1], the 50% inhibitory concentration (IC50) is over 30000 nM.
For the compound `Cc1ccc(C2=NN(C(=O)N[C@H](C)c3ccc(Cl)nn3)C[C@@H]2N2CCOC2=O)cc1` [Compound 31], the IC50 in assay [1] was over 30000 nM.
The compound `CC(=O)N1CCN([C@@H]2CN(C(=O)N[C@H](C)c3ccc(C(F)(F)F)nc3)N=C2c2ccc(C)cc2)C1=O` [Compound 18a, (R)-4-(3-acetyl-2-oxoimidazolidin-1-yl)-3-(4-methylphenyl)-N-((R)-1-(6-(trifluoromethyl)pyridin-3-yl)ethyl)-4,5-dihydro-1H-pyrazol-1-carboxamide] gave a half-inhibitory concentration (IC50) in assay [2] of 95 nM.
The compound `CC(=O)N(C)[C@@H]1CN(C(=O)N[C@H](C)c2ccc(C(F)(F)F)nc2)N=C1c1ccc(C)cc1` [Compound 25a] displayed an IC50 in assay [2] of 112 nM.
The compound `COc1ccc(C2=NN(C(=O)N[C@H](C)c3cnc(C(F)(F)F)nc3)C[C@H]2N2CCOCC2=O)cc1` [Compound 36a, (R)-4-(3-oxomorpholin-4-yl)-3-(4-methoxyphenyl)-N-((R)-1-(2-(trifluoromethyl)pyrimidin-5-yl)ethyl)-4,5-dihydro-1H-pyrazol-1-carboxamide] displayed an IC50 in assay [2] of 422 nM.
`C[C@@H](NC(=O)N1C[C@H](N2CCOCC2=O)C(c2ccc(Cl)cc2)=N1)c1cnc(C(F)(F)F)nc1` [Compound 35, (S)-4-(3-oxomorpholin-4-yl)-3-(4-chlorophenyl)-N-((R)-1-(2-(trifluoromethyl)pyrimidin-5-yl)ethyl)-4,5-dihydro-1H-pyrazol-1-carboxamide] came in with a half-maximal inhibitory concentration (IC50) in assay [2] of 215 nM.
On the same count and under the same terms, the value for `C[C@@H](NC(=O)N1C[C@@H](N2CCCC2=O)C(c2ccc(F)cc2)=N1)c1cnc(Cl)nc1` [Compound 44a, (R)-4-(2-oxopyrrolidin-1-yl)-3-(4-fluorophenyl)-N-((R)-1-(2-chloropyrimidin-5-yl)ethyl)-4,5-dihydro-1H-pyrazol-1-carboxamide] was 421 nM; that for `Cc1ccc(C2=NN(C(=O)N[C@H](C)c3cnc(F)c(F)c3)C[C@@H]2N2CCOC2=O)cc1` [Compound 12] was 436 nM; that for `COc1ccc(C2=NN(C(=O)N[C@H](C)c3cnc(C(F)(F)F)nc3)C[C@@H]2N2CCOCC2=O)cc1` [Compound 36, (S)-4-(3-oxomorpholin-4-yl)-3-(4-methoxyphenyl)-N-((R)-1-(2-(trifluoromethyl)pyrimidin-5-yl)ethyl)-4,5-dihydro-1H-pyrazol-1-carboxamide] was 283 nM.
As for `Cc1ncc([C@@H](C)NC(=O)N2C[C@H](N3CCOC3=O)C(c3ccc(Cl)cc3)=N2)cn1` [Compound 43, (S)-4-(2-oxooxazolidin-3-yl)-3-(4-chlorophenyl)-N-((R)-1-(2-methylpyrimidin-5-yl)ethyl)-4,5-dihydro-1H-pyrazol-1-carboxamide], the half-maximal inhibitory concentration (IC50) in assay [2] worked out at 331 nM.
Consider `Cc1ccc(C2=NN(C(=O)N[C@H](C)c3ccc(C(F)(F)F)nc3)C[C@H]2N2CCCC2=O)cc1` [Compound 21a], for which, in assay [2], the half-maximal inhibitory concentration (IC50) was determined as 85 nM.
In assay [2], `CC(=O)N1CCN([C@H]2CN(C(=O)N[C@H](C)c3ccc(C(F)(F)F)nc3)N=C2c2ccc(C)cc2)C1=O` [Compound 18, (S)-4-(3-acetyl-2-oxoimidazolidin-1-yl)-3-(4-methylphenyl)-N-((R)-1-(6-(trifluoromethyl)pyridin-3-yl)ethyl)-4,5-dihydro-1H-pyrazol-1-carboxamide] yielded a concentration for half-maximal inhibition (IC50) of 173 nM.
In assay [2], `CC(=O)N(C)[C@H]1CN(C(=O)N[C@H](C)c2ccc(C(F)(F)F)cc2)N=C1c1ccc(C)cc1` [Compound 5] displayed an IC50 of 409 nM.
For the compound `Cc1ccc(C2=NN(C(=O)N[C@H](C)c3cnc(C(F)(F)F)nc3)C[C@@H]2N2CCN(C)CC2)cc1` [Compound 38], the half-maximal inhibitory concentration (IC50) in assay [2] came to 2670 nM.
In turn, `Cc1cnc([C@@H](C)NC(=O)N2C[C@@H](N3CCCC3=O)C(c3ccc(F)cc3)=N2)cn1` [Compound 28a, (R)-4-(2-oxopyrrolidin-1-yl)-3-(4-fluorophenyl)-N-((R)-1-(5-methylpyrazin-2-yl)ethyl)-4,5-dihydro-1H-pyrazol-1-carboxamide] yielded a concentration for half-maximal inhibition (IC50) in assay [2] of 165 nM.
For `Cc1ccc(C2=NN(C(=O)N[C@H](C)c3cnc(C(F)(F)F)nc3)C[C@@H]2N2CCOC2=O)cc1` [Compound 40, (S)-4-(2-oxooxazolidin-3-yl)-3-(4-methylphenyl)-N-((R)-1-(2-(trifluoromethyl)pyrimidin-5-yl)ethyl)-4,5-dihydro-1H-pyrazol-1-carboxamide], the IC50 in assay [1] was over 30000 nM.
As for `Cc1ccc(C2=NN(C(=O)N[C@H](C)c3ccc(C(F)(F)F)cn3)C[C@@H]2N2CCCC2=O)cc1` [Compound 10], in assay [2], the half-inhibitory concentration (IC50) was 216 nM.
For the compound `Cc1ccc(C2=NN(C(=O)N[C@H](C)c3ccc(C(F)(F)F)nc3)C[C@@H]2N2CCOCC2=O)cc1` [Compound 1, (S)-4-(3-oxomorpholin-4-yl)-3-(4-methylphenyl)-N-((R)-1-(6-(trifluoromethyl)pyridin-3-yl)ethyl)-4,5-dihydro-1H-pyrazol-1-carboxamide], the IC50 in assay [1] was over 30000 nM.
As to `COc1ccc([C@@H](C)NC(=O)N2C[C@@H](N3CCOC3=O)C(c3ccc(Cl)cc3)=N2)nn1` [Compound 29a, (R)-4-(2-oxooxazolidin-3-yl)-3-(4-chlorophenyl)-N-((R)-1-(6-(methoxy)pyridazin-3-yl)ethyl)-4,5-dihydro-1H-pyrazol-1-carboxamide], the half-inhibitory concentration (IC50) in assay [2] came out at 105 nM.
`Cc1ccc(C2=NN(C(=O)N[C@H](C)c3cnc(C(F)(F)F)nc3)C[C@H]2N2CCOCC2=O)cc1` [Compound 3a, (R)-4-(3-oxomorpholin-4-yl)-3-(4-methylphenyl)-N-((R)-1-(2-(trifluoromethyl)pyrimidin-5-yl)ethyl)-4,5-dihydro-1H-pyrazol-1-carboxamide] came in with an IC50 in assay [2] of 318 nM.
Turning to `Cc1ccc(C2=NN(C(=O)N[C@H](C)c3ccc(OC(F)(F)F)nc3)C[C@@H]2N2CCCC2=O)cc1` [Compound 13], inhibition in assay [2] was half-maximal at 257 nM (IC50).
In assay [2], `C[C@@H](NC(=O)N1C[C@@H](N2CCOCC2=O)C(c2ccc(F)cc2)=N1)c1cnc(C(F)(F)F)nc1` [Compound 33a, (R)-4-(3-oxomorpholin-4-yl)-3-(4-fluorophenyl)-N-((R)-1-(2-(trifluoromethyl)pyrimidin-5-yl)ethyl)-4,5-dihydro-1H-pyrazol-1-carboxamide] yielded a concentration for half-maximal inhibition (IC50) of 365 nM.
The compound `Cc1ccc(C2=NN(C(=O)N[C@H](C)c3cnc(C)cn3)C[C@@H]2N2CCOC2=O)cc1` [Compound 27] came in with a 50% inhibitory concentration (IC50) in assay [2] of 389 nM.
